Laboratory results from ChEMBL document CHEMBL1150458, “A highly potent series of fluoroalkyl benzoxazine pyridine-N-oxide potassium channel openers” (Bioorg Med Chem Lett, 1993).

What was measured:
Format in all cases: functional
Cavia porcellus [1] = species: Cavia porcellus; assay: The compound was tested for hypotensive activity against guinea pig detrusor (bladder) strip mildly depolarized with 15 mM KCl
Cavia porcellus [2] = species: Cavia porcellus; assay: Tested for percent increase of efflux rate constant of 0.233 uM of compound using guinea pig detrusor
Cavia porcellus [3] = species: Cavia porcellus; assay: The compound was tested for hypotensive activity against guinea pig vascular tissue (portal vein) strip mildly depolarized with 15 mM KCl
Rattus norvegicus = assay: Tested for lowering of blood pressure in spontaneously hypertensive rat model upon oral administration at 5 ug/kg

SMILES	IC50 (Cavia porcellus [1]) [nM]	further results
C[C@@]1(C(F)(F)F)CN(c2cccc[n+]2[O-])c2cc(S(=O)(=O)c3ccccc3)ccc2O1	0.28	
C[C@]1(C(F)(F)F)CN(c2cccc[n+]2[O-])c2cc(S(=O)(=O)c3ccccc3)ccc2O1	0.68	
O=[N+]([O-])c1ccc2c(c1)N(c1cccc[n+]1[O-])CC(C(F)F)(C(F)F)O2		Increase (Cavia porcellus [2]): 40.5%; IC50 (Cavia porcellus [3]): 0.6 nM; Blood pressure (Rattus norvegicus): 35 mmHg
CC1(C)CN(c2cccc[n+]2[O-])c2cc(S(=O)(=O)c3ccccc3)ccc2O1	4.1	
CC1(C)CN(c2cccc[n+]2[O-])c2cc([N+](=O)[O-])ccc2O1	74	
CC1(C(F)(F)F)CN(c2cccc[n+]2[O-])c2cc(S(=O)(=O)c3ccccc3)ccc2O1 (racemic)	0.54	
